Read-outs that look alike come from different tables or passages of the source.
Assays:
K562 cells [1] = assay: K562 cell count, DP with GSK983 in uridine supplemented media; format: cell-based; conditions: Homo sapiens, 50 nM GSK983, 20 μM uridine supplemented media, 72 h
[2] = test system: A549 lung cancer cell line; assay: A549 cell count, DP with GSK983 in uridine supplemented media; format: cell-based; conditions: Homo sapiens, 158 nM GSK983, 20 μM uridine supplemented media, 72 h, read-out: IC50(DP), A549 viable cell count
DENV [3] = assay: DENV antiviral assay for combination of GSK983 and DP; format: cell-based, dengue virus serotype 2 strain 16681; conditions: Dengue virus
MV4-11 cells = assay: MV4-11 cell killing, DP with GSK983 in uridine supplemented media; format: cell-based; conditions: Homo sapiens, 158 nM GSK983, 20 μM uridine supplemented media
[4] = test system: uridine salvage in K562 and A549 cells; assay: Uridine salvage inhibition by 5-ethynyl-uridine (5-EU) incorporation and click chemistry; format: cell-based; conditions: Homo sapiens
recombinant human CMPK1 = target: T1, recombinant human CMPK1 (Homo sapiens, UniProt P30085); assay: In vitro enzyme activity assay with recombinant human CMPK1 (ATP consumption); format: biochemical; conditions: GSK983 concentrations up to 10 μM
T1 sequence (P30085 1-196): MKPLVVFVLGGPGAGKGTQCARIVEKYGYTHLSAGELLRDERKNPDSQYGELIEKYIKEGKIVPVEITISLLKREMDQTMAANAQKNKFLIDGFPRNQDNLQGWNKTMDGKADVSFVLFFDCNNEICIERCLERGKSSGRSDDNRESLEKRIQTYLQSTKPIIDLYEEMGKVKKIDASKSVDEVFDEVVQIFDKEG
Description: In vitro enzyme activity assays with recombinant human CMPK1. The activity of recombinant human CMPK1 was measured in the presence of GSK983 using an ATP consumption assay. CMPK1 (10 nM) was added to a reaction buffer containing Tris (50 mM, pH 7.5), MgCl2 (2 mM), DTT (2 mM), ATP (100 μM), CMP (100 μM), and GSK983 (0-10 μM, from a DMSO stock solution). The final concentration of DMSO in all reaction mixtures was 2% (v/v). Enzyme activity assays were conducted at 37° C. The consumption of phosphoryl donor ATP was monitored using a Promega Kinase-Glo Luminescent Kinase Assay kit according to the manufacturer's instructions. We observed no effect of GSK983 on CMPK1 activity in vitro at GSK983 concentrations up to 10 μM.

K562 cells [5] = assay: Annexin V-FITC/7-AAD apoptosis assay; format: cell-based, human; conditions: 72 h GSK983 treatment
Description: Annexin V-FITC/7-AAD apoptosis assay. K562 cells were seeded into 24-well plates at a density of 50,000 cells/mL and treated with the indicated concentration of GSK983 for 72 h. The final concentration of DMSO in each well was <0.1%. Following 72 h GSK983 treatment, cells were harvested and pelleted (399 g, 5 min). The supernatant was removed by vacuum. Cell death by apoptosis was analyzed using a BioVision Annexin V-FITC Apoptosis Kit (catalog number K101-100). A staining solution was prepared by first diluting the provided Annexin V-FITC solution in binding buffer according to the specifications of the manufacturer. 7-AAD was added from a stock solution in DMSO (0.67 mg/mL) such that the final concentration of 7-AAD in the staining solution was 2.5 μg/mL. Cell samples were resuspended in 0.5 mL of the staining solution. Samples were incubated at room temperature for 10 min in the dark and analyzed by flow cytometry using a BD Accuri C6 Flow Cytometer. FITC fluorescence was detected in FL1 and 7-AAD fluorescence was detected in FL3.

[6] = test system: variety of unrelated viruses; conditions: Harvey et al. (2009); read-out: EC50, inhibition of replication of a variety of unrelated viruses in vitro; cited from earlier work
VEEV = assay: microbe, parasite or virus in culture; format: cell-based, Venezuelan equine encephalitis virus (vaccine strain TC-83); conditions: Venezuelan equine encephalitis virus, A549, read-out: IC50, inhibition of VEEV replication
K562 cells [7] = assay: GSK983 dose response, K562 cell growth (viable cells by flow cytometry); format: cell-based; conditions: Homo sapiens, 72 h treatment, viable cells counted by flow cytometry, read-out: IC50, inhibition of K562 cell growth
Description: GSK983 dose response and growth time course in K562 cells. To determine the dose response of K562 cells to GSK983, K562 cells were seeded into 24-well plates at a density of 50,000 cells/mL and treated with GSK983 at the indicated concentration for 72 h. Following 72 h treatment, cells were harvested and the density of viable cells was determined by flow cytometry (FSC/SSC) using a BD Accuri C6 Flow Cytometer. IC50 values were calculated by fitting a 4-parameter logistic equation to the data. […] At the indicated time points, cells were harvested and the density of viable cells was determined by flow cytometry (FSC/SSC) using a BD Accuri C6 Flow Cytometer.

DENV [8] = assay: DENV antiviral assay (DENV-Luc replication in A549 cells); format: cell-based, dengue virus serotype 2 strain 16681; conditions: for IC50: Dengue virus, A549, 72 h
A549 cells = assay: A549 cell viability assay accompanying the DENV assay; format: cell-based, human; conditions: 30 nM GSK983 and 1 mM deoxycytidine, 72 h
DENV [9] = format: cell-based, dengue virus serotype 2 strain 16681; conditions: 48 nM GSK983, 20 μM uridine, UCK2 shRNA derivative
recombinant human DHODH = recombinant human DHODH (Homo sapiens, UniProt Q02127); assay: In vitro enzyme activity assay with recombinant human Δ29DHODH (DCPIP coupled assay); format: biochemical; conditions: recombinant human Δ29DHODH 10 nM, DHO 200 μM; read-out: Ki, DHODH, competitive with respect to decylubiquinone binding
Description: The reduction of DCPIP can be monitored by the loss of absorbance at 610 nm (ε=21,500 M−1cm-1). Kinetic constants were calculated from measurements in which Δ29DHODH (10 nM) was either titrated with different concentrations of decylubiquinone (QD, 10-60 μM) at a fixed concentration of DHO (200 μM) or titrated with different concentrations of DHO (10-60 μM) at a fixed concentration of QD (100 μM). Enzymatic assays were conducted at 25° C. in a reaction buffer containing Tris (100 mM, pH 8.0), NaCl (150 mM), DCPIP (60 μM), glycerol (10% v/v), and Triton X-100 (0.1% v/v). The Km values for Δ29DHODH (15 μM for DHO and 14 μM for QD) were in good agreement with previously reported values for both the full-size and N-terminally truncated enzyme.
For each inhibitor compound, three reactions were prepared: a control reaction containing no inhibitor and two reactions containing different inhibitor concentrations. Δ29DHODH was incubated with inhibitor compounds at room temperature for 5 min. The indicated concentration of QD and DHO (200 μM) were added to the reaction mixtures and absorbance at 610 nm was monitored using a PerkinElmer Lamda 25 UV-Vis spectrophotometer. For enzyme activity assays, inhibitor compounds were prepared as 1 mM stock solutions in DMSO. A QD stock solution (10 mM) was prepared in a buffer containing Tris (100 mM, pH 8.0) and Triton X-100 (1.0% v/v). […]

K562 cells [10] = assay: Cell cycle analysis based on total DNA content (propidium iodide); design: species or system human; conditions: 24 h GSK983 treatment
Description: Cell cycle analysis based on total DNA content (propidium iodide). […] Cells were treated with the indicated concentration of GSK983 for 24 h. […] Following 24 treatment, cells were harvested and pelleted (300 g, 5 min). The supernatant was removed by vacuum and the cells were washed (0.5 mL 1×PBS). Cells were resuspended in 70% EtOH (1 mL, 0° C.) with mild vortexing. Cells were fixed in 70% EtOH overnight at 4° C. The following day, fixed cells were pelleted (1900 g, 5 min), washed (0.5 mL 1×PBS), and resuspended in 200 μL of a total DNA content staining solution (1×PBS with 50 μg/mL RNase A and 10 μg/mL propidium iodide). Samples were incubated for 30 min at 37° C. and analyzed by flow cytometry using a BD Accuri C6 Flow Cytometer. Propidium iodide fluorescence was detected in FL2.

[11] = test system: chronic myelogenous leukemia (CML); conditions: in vivo; cited from earlier work

Sequence of recombinant human DHODH (Q02127 30-395): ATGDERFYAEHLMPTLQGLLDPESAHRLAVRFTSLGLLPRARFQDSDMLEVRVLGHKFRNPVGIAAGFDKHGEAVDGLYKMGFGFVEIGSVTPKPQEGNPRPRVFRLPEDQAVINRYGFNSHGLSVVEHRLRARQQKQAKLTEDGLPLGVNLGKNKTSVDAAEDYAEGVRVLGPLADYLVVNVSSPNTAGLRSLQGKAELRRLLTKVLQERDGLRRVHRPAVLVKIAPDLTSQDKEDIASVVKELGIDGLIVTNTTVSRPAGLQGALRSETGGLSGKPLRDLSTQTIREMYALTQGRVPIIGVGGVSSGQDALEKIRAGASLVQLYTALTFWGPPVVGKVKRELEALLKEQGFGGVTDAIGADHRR

Compound: OCCN(CCO)c1nc(N2CCCCC2)c2nc(N(CCO)CCO)nc(N3CCCCC3)c2n1 [DP, dipyridamole]
- IC50 (K562 cells [1]): 110 nM
- IC50 [2]: 230 nM
- EC50 (DENV [3]; A549, 48 h, read-out: EC50 of DP, DENV luciferase signal, 2 days post-infection): 135 nM
- EC50 (DENV [3]; A549, 72 h, read-out: EC50 of DP, DENV luciferase signal, 3 days post-infection): 164 nM
- IC50 (MV4-11 cells): 110 nM
- IC50 [4]: 200 nM

Compound: O=C(N[C@@H]1CCCc2c1[nH]c1ccc(Cl)cc21)c1ccccn1 [GSK983, (R)—N-(6-Chloro-2,3,4,9-tetrahydro-1H-carbazol-1-yl)picolinamide]
- Effect on in vitro CMPK1 activity (recombinant human CMPK1): no effect
- Cell death by apoptosis (K562 cells [5]): dose dependent increase in K562 cell death by apoptosis
- EC50 [6]: 5 to 20 nM
- IC50 (VEEV): 12.8 nM
- IC50 (K562 cells [7]): 21 nM
- Reduction in DENV replication (DENV [8]; 30 nM GSK983 and 1 mM deoxycytidine, A549 cells): ~90%
- Antiviral activity against DENV with uridine supplementation (DENV [8]; A549 cells, 1 mM uridine): completely abolished the antiviral activity
- IC50 (DENV [8]; read-out: IC50, inhibition of DENV replication): 13.3 nM
- IC50 (DENV [8]; read-out: IC50, inhibition of DENV replication with exogenous deoxycytidine): 13.5 nM
- Effect on A549 cell growth (A549 cells): minimal effect
- DENV replication in A549 UCK2 shRNA cells (DENV [9]): inhibited viral replication in the latter cell-line
- Ki (recombinant human DHODH): 403 nM
- Cell cycle effect (K562 cells [10]): accumulation of K562 cells in S phase

Compound: Cc1c(-c2ccc(-c3ccccc3F)cc2)nc2ccc(F)cc2c1C(=O)O [brequinar]
- Efficacy towards CML in mouse models [11]: effective

From patent US10736911B2, “Use of a DHODH inhibitor in combination with an inhibitor of pyrimidine salvage” (The Board of Trustees of the Leland Stanford Junior …, priority 2015, dated 2020)
